Data as given in patent US12636294B2, “Compositions and methods for the treatment or prevention of traumatic brain injury” (priority 2019, dated 2026).

Tests used:
[1] = after inhalation; general statement, no experiment described; cited from earlier work
[2] = tested on: rat model of TBI induced by controlled cortical impact (CCI); experiment: Morris Water Maze (MWM), spatial learning and memory after CCI injury; type: in vivo, Sprague-Dawley (SD) rats; conditions: observed; for E (normalised activity value used to calculate synergy), MWM proportion of rats that reached the platform / E (normalised activity value used to calculate synergy), MWM instances of rats reaching the platform: (X-placebo)/(sham-placebo); for E (normalised activity value used to calculate synergy), MWM instances of rats reaching the platform: 7-days post-head injury; for Instances of centre of rat corresponding to platform location normalised to the number of rats in group / Number of rats that reached the platform normalised to the total number of rats in each group: MWM 7-days post-head injury; for Instances of centre of rat corresponding to platform location normalised to the number of rats in group: CBD 20 mg/kg I.P LD 15-30 min post-injury + MD x 6, isoflurane 1.5% inhaled LD at 1 hr post-injury; for Number of rats that reached the platform normalised to the total number of rats in each group: CBD 20 mg/kg I.P LD + MD x 6, isoflurane 1.5% inhaled LD
Experimental: (§1) The effect of cannabidiol (CBD) combined with isoflurane therapy was assessed using a rat model of TBI induced by controlled cortical impact (CCI). Briefly, Sprague-Dawley (SD) rats were anaesthetised with 3% pentobarbital sodium before fixing the head in a stereotaxic frame. After performing a craniotomy, a contusion injury (CCI) was induced with an IMP-3000 TBI Impactor with a diameter of 5.0 mm, a depth of 2.5 mm, dwell time of 100 ms and velocity of 5 m/s. Control rats underwent the same surgical procedure, including craniotomy, without CCI.
(§2) The randomised groups are detailed in Table 2.
(§3) Behavioural outcomes following CCI were assessed using the Morris Water Maze (MWM), which assesses cognitive defects after CCI injury (see, e.g., Nunez, 2008, Journal of Visualized Experiments, 897) and the Rotarod test, which assesses changes in motor function (see, e.g., Shiotsuki et al., 2010, Journal of Neuroscience Methods, 189: 180-185).
(§4) The combinatorial neuroprotective effects of CBD and isoflurane were assessed using a rat controlled cortical impact model of TBI. Briefly, head injury is induced in the rats by first performing a craniotomy to remove a small disc of bone from the skull and then using a pneumatic rod to directly impact the exposed brain. Controlled Cortical Impact (CCI) parameters used in this study were 2.5 mm depth, 5 m/s velocity, 100 ms dwell time. Sham control animals underwent an identical surgical procedure, including craniotomy, but without the CCI injury.
(§5) Animals were treated with CBD (20 mg/kg) and isoflurane (1.5%) both alone and in combination (Table 2). A loading dose comprising CBD and isoflurane was administered sequentially, with CBD administered 15-30 min post injury and isoflurane administered 1-2 h after injury. Daily maintenance doses of CBD were administered for six consecutive days after administration of the loading dose.
(§6) To determine the neuroprotective effects associated with the combination of CBD and isoflurane, the MWM, a well-established assay for investigation of spatial learning and memory (Nunez, 2008, supra; D'Hooge et al., 2001, Brain Research Reviews, 36: 60-90), and the Rotarod, a device used to monitor motor coordination (Deacon, 2013, Journal of Visualized Expreiments, e2609-e2609; Shitosuki et al., 2010, supra), were used 7-days post-head injury. The predicted combinatorial effects of CBD and isoflurane were calculated using the Bliss independence principle using the equation: Epred A+B=(EA+EB)−(EAEB)
(§7) The activity of the combination for this equation was calculated as: (X−placebo)/(sham−placebo)
In the MWM a rat is trained to recognise where a platform is located in a water tank over a series of days. It is then released into the tank and monitored for the ability to locate the platform. A lack of ability to locate the platform is indicative of a spatial memory neurocognitive deficit.

[3] = tested on: rat model of TBI induced by controlled cortical impact (CCI); experiment: Rotarod test, motor function after CCI injury; type: in vivo, Sprague-Dawley (SD) rats; conditions: observed; for E (normalised activity value used to calculate synergy), Rotarod latencies: (X-placebo)/(sham-placebo); for Latency: Rotarod 7-days post-head injury, CBD 20 mg/kg I.P LD + MD x 6, isoflurane 1.5% inhaled LD
Experimental: as §1, §2, §3, §4, §5, §6, §7

[4] = general statement, no experiment described; cited from earlier work

C=C(C)[C@@H]1CCC(C)=C[C@H]1c1c(O)cc(CCCCC)cc1O [CBD, cannabidiol]
Time to achieve significant CNS concentrations [1]: within two minutes | E (normalised activity value used to calculate synergy), MWM proportion of rats that reached the platform [2]: 0.21 | E (normalised activity value used to calculate synergy), MWM instances of rats reaching the platform [2]: −0.2 | Instances of centre of rat corresponding to platform location normalised to the number of rats in group [2]: 0.4 | Number of rats that reached the platform normalised to the total number of rats in each group [2]: 0.4 | E (normalised activity value used to calculate synergy), Rotarod latencies [3]: −0.04 | Latency [3]: 17.60 s

COC(F)(F)C(Cl)Cl [Methoxyflurane, methoxyflurane]
Time to achieve significant CNS concentrations [1]: ≤ 2 min | Lipid solubility [4]: highly lipid-soluble

FC(F)OC(Cl)C(F)(F)F (stereo not drawn) [isoflurane]
E (normalised activity value used to calculate synergy), MWM proportion of rats that reached the platform [2]: 0.50 | E (normalised activity value used to calculate synergy), MWM instances of rats reaching the platform [2]: 0.67 | Instances of centre of rat corresponding to platform location normalised to the number of rats in group [2]: 0.83 | Number of rats that reached the platform normalised to the total number of rats in each group [2]: 0.5 | E (normalised activity value used to calculate synergy), Rotarod latencies [3]: −0.09 | Latency [3]: 17.33 s
